Results reported in patent US20240270751A1, “Pyrazolopyridinone Compounds” (BeiGene Ltd., priority 2021, published 2024).

Key:
DGKα = DGKα (Homo sapiens (Human), UniProt P23743); assay: Biochemical DGK IC50 assay, DGKα ADP-Glo assay; conditions: 7.5 nM enzyme, 140 μM ATP, 80 μM DAG
Protocol: (§1) Enzymatic reactions of DGKζ, DGKα and DGKδ were performed using ADP-Glo assay with lipid micelle substrate. […] Full length DGKα (D21-10BG, SignalChem) and full length DGKδ (D23-10G, SignalChem) were purchased. Lipid micelle was prepared by dissolving DAG (Sigma, 317505-10MG) and PS (Sigma, P7769-100MG) with chloroform which was furtherly removed by rotary evaporation. The resulted product was resuspended in buffer containing 25 mM HEPES pH 7.0, 0.5 mM EDTA and 160 mM Octyl β-D glucopyranoside by vigorous mixing and ultrasonic (IID, Scientz).
(§2) The ranges of compounds final concentration were 1.55˜10000 nM or 23.3˜150000 nM. 3 μL 2× enzyme solution was added to wells.

DGKζ = DGKζ (Homo sapiens (Human), UniProt Q13574); assay: Biochemical DGK IC50 assay, DGKζ ADP-Glo assay; conditions: 0.5 nM enzyme, 140 μM ATP, 80 μM DAG; read-out: DGKζ ADP-Glo assay IC50
Protocol: as §1, §2
Human His-TEV-DGK-zeta-pFastBac1 and human baculovirus samples was generated using the Bac-to-Bac baculovirus expression system (Invitrogen) according to the manufacturer's protocol. The DNA used for expression of DGK-zeta, have SEQ ID Nos: 1. Baculovirus amplification was achieved using infected SF9 cells at 1:2000 virus/cells ratios, and grown for 96 hours at 27° C. post-transfected.
The expression scaled up for each protein was carried out in the […] from CORNING. 4 L of 3×10^6 cells/mL Sf9 cells (Expression System, Invitrogen) grown in SF900™ II SFM insect medium (Expression System) was infected with virus stock at 1:200 virus/cells ratio, and grown for 48 hours at 27° C. post-transfection. The infected cell culture was harvested by centrifugation at 6000 rpm for 15 min 4° C. in a SORVALL LYNX6000 centrifuge. The cell pellets were stored at −80° C.
Full length human DGKζ produced as described above, was purified from Sf9 baculovirus-infected insect cell paste. The cells were lysed using sonication method, and the lysates were clarified by centrifugation.

Sequence of DGKα (P23743 whole entry): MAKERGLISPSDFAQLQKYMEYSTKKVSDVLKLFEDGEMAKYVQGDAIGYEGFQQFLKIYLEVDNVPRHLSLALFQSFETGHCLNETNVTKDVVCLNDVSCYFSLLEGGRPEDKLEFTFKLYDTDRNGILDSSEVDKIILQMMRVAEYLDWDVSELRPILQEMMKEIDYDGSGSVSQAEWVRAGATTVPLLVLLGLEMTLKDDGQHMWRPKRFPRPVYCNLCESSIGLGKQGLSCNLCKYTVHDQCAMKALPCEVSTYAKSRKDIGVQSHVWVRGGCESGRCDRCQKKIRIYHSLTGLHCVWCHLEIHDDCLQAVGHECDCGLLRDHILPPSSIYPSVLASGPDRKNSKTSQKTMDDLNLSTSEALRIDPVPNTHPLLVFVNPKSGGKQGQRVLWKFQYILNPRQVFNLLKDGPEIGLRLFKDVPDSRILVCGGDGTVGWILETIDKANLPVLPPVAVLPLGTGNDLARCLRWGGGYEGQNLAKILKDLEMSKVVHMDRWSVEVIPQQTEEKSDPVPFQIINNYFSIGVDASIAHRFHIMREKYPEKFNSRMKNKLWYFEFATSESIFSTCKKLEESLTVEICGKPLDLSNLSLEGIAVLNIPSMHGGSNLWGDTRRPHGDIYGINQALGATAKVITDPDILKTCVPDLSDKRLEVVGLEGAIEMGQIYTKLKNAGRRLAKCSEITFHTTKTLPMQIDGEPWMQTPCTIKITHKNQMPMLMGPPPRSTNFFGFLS
Sequence of DGKζ (Q13574 other isoform, or with tags, fused parts or gaps): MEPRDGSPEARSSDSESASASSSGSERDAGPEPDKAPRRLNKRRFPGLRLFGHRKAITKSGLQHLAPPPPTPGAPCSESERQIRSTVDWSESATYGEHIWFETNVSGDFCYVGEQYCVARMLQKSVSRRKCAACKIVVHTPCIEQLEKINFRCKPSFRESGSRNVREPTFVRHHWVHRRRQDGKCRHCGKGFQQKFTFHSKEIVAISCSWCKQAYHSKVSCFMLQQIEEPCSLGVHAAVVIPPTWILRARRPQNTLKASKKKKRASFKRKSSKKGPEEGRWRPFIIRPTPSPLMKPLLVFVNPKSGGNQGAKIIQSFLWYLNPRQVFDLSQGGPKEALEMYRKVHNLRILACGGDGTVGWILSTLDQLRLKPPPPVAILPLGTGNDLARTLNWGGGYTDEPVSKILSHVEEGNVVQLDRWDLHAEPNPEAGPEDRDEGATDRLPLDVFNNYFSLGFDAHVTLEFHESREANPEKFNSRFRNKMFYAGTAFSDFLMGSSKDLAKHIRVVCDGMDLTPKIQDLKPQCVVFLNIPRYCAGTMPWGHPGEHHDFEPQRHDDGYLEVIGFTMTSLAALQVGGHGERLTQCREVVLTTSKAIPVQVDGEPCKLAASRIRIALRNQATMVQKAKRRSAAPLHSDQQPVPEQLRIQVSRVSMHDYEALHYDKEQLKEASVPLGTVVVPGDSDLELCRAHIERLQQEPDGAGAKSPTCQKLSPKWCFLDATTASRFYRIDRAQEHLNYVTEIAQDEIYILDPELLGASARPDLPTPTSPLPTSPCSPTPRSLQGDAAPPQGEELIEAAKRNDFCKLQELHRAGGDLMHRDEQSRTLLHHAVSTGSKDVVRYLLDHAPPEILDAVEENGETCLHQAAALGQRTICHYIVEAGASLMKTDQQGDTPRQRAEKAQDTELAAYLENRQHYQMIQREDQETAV

Row | Compound | IC50 (DGKα) | IC50 (DGKζ)
1 | CC[C@H]1CN(C(C)c2cnn(CC)c2C(F)(F)F)[C@H](CC)CN1c1cc(=O)n(C)c2cn(CC#N)nc12 (single isomer, unassigned) [Compound A119b] | 4.56 µM | 0.964 µM
2 | CC[C@H]1CN(C(C)c2ccc(C(N)=O)cc2)[C@H](CC)CN1c1cc(=O)n(C)c2cn(CC#N)nc12 (single isomer, unassigned) [Compound A120a] | 0.176 µM | 2.93 µM
3 | CC[C@H]1CN(C(C)c2ccc(C(N)=O)cc2)[C@H](CC)CN1c1cc(=O)n(C)c2cn(CC#N)nc12 (single isomer, unassigned) [Compound A120b] | 2.26 µM | > 10 µM
4 | CC[C@H]1CN(C(C)c2cccc(CO)c2)[C@H](CC)CN1c1cc(=O)n(C)c2cn(CC#N)nc12 (single isomer, unassigned) [Compound A121a] | 1.3 µM | 3.02 µM
5 | CC[C@H]1CN(C(C)c2ccc(C)cc2)[C@H](CC)CN1c1cc(=O)n(C)c2cn(CC#N)nc12 (single isomer, unassigned) [Compound A127a] | 0.037 µM | 0.084 µM
6 | CC[C@H]1CN(C(C)c2ccc(C)cc2)[C@H](CC)CN1c1cc(=O)n(C)c2cn(CC#N)nc12 (single isomer, unassigned) [Compound A127b] | 0.177 µM | 3.71 µM
7 | CC[C@H]1CN(C(C)c2ccc(F)cc2F)[C@H](CC)CN1c1cc(=O)n(C)c2cn(CC#N)nc12 (single isomer, unassigned) [Compound A132a] | 0.0089 µM | 0.0059 µM
8 | CC[C@H]1CN(C(C)c2ccc(F)cc2F)[C@H](CC)CN1c1cc(=O)n(C)c2cn(CC#N)nc12 (single isomer, unassigned) [Compound A132b] | 0.33 µM | 1.78 µM
9 | CC[C@H]1CN(C(C)c2ccc(C(F)(F)F)nc2)[C@H](CC)CN1c1cc(=O)n(C)c2cn(CC#N)nc12 (single isomer, unassigned) [Compound A135a] | 0.398 µM | 0.097 µM
10 | CC[C@H]1CN(C(C)c2ccc(C(F)(F)F)nc2)[C@H](CC)CN1c1cc(=O)n(C)c2cn(CC#N)nc12 (single isomer, unassigned) [Compound A135b] | 0.428 µM | 1.3 µM
11 | CC[C@H]1CN(C(C)c2ccc3nccnc3c2)[C@H](CC)CN1c1cc(=O)n(CC(F)F)c2cn(CC#N)nc12 (single isomer, unassigned) [Compound A139a] | > 10 µM | 0.112 µM
12 | CC[C@H]1CN(C(C)c2ccc3nccnc3c2)[C@H](CC)CN1c1cc(=O)n(CC(F)F)c2cn(CC#N)nc12 (single isomer, unassigned) [Compound A139b] | > 10 µM | 5.74 µM
13 | CC[C@H]1CN(C2CCc3ccccc32)[C@H](CC)CN1c1cc(=O)n(C)c2cn(CC#N)nc12 (single isomer, unassigned) [Compound A149a] | 4.12 µM | 4.16 µM
14 | CC[C@H]1CN(C2CCc3ccccc32)[C@H](CC)CN1c1cc(=O)n(C)c2cn(CC#N)nc12 (single isomer, unassigned) [Compound A149b] | 0.191 µM | 2.25 µM
15 | CC[C@H]1CN(C(C)c2ccc(F)cc2OC)[C@H](CC)CN1c1cc(=O)n(CCO)c2cn(CC#N)nc12 (single isomer, unassigned) [Compound A153a] | > 10 µM | 9.34 µM
16 | CC[C@H]1CN(C(C)c2ccc(F)cc2OC)[C@H](CC)CN1c1cc(=O)n(CCO)c2cn(CC#N)nc12 (single isomer, unassigned) [Compound A153b] | > 10 µM | 0.545 µM
17 | CC[C@H]1CN(C(C)c2cnc3ccccc3n2)[C@H](CC)CN1c1cc(=O)n(C)c2cn(CC#N)nc12 (single isomer, unassigned) [Compound A155a] | 0.728 µM | 1.38 µM
18 | CC[C@H]1CN(C(C)c2cnc3ccccc3n2)[C@H](CC)CN1c1cc(=O)n(C)c2cn(CC#N)nc12 (single isomer, unassigned) [Compound A155b] | 0.032 µM | 0.0076 µM
19 | CC[C@@H]1CN(c2c(Br)c(=O)n(C)c3cn(CC#N)nc23)CCN1C(C)c1ccc2nccnc2c1 (single isomer, unassigned) [Compound A179b] | > 10 µM | > 10 µM

Next, values leading:

Row | IC50 (DGKα) | IC50 (DGKζ) | Compound
20 | > 10 µM | > 10 µM | CC[C@@H]1CN(c2cc(=O)n(C)c3cn(CC#N)nc23)CCN1C(C)c1ccc2nccnc2c1 (single isomer, unassigned) [Compound A161a]
21 | 78.2 µM | 0.093 µM | CC[C@@H]1CN(c2cc(=O)n(C)c3cn(CC#N)nc23)CCN1C(C)c1ccc2nccnc2c1 (single isomer, unassigned) [Compound A161b]
22 | > 10 µM | 1.05 µM | CC[C@@H]1CN(c2c(Cl)c(=O)n(C)c3cn(CC#N)nc23)CCN1C(C)c1ccc2nccnc2c1 (single isomer, unassigned) [Compound A162b]
23 | 8.34 µM | 0.065 µM | CC[C@H]1CN(C(C)c2ccc(F)cc2OC(F)F)[C@H](CC)CN1c1cc(=O)n(C)c2cn(CC#N)nc12 (single isomer, unassigned) [Compound A171a]
24 | > 10 µM | 1.36 µM | CC[C@H]1CN(C(C)c2ccc(F)cc2OC(F)F)[C@H](CC)CN1c1cc(=O)n(C)c2cn(CC#N)nc12 (single isomer, unassigned) [Compound A171b]
25 | 20.4 µM | 0.014 µM | CC[C@H]1CN(C(C)c2ccc(F)cc2C(F)F)[C@H](CC)CN1c1cc(=O)n(C)c2cn(CC#N)nc12 (single isomer, unassigned) [Compound A172b]
26 | > 10 µM | 0.502 µM | COC(=O)C1CN(c2cc(=O)n(C)c3cn(CC#N)nc23)CCN1[C@@H](C)c1ccc2nccnc2c1 (single isomer, unassigned) [Compound A173a]
27 | > 10 µM | > 10 µM | COC(=O)C1CN(c2cc(=O)n(C)c3cn(CC#N)nc23)CCN1[C@H](C)c1ccc2nccnc2c1 (single isomer, unassigned) [Compound A173b]
28 | 8.21 µM | 0.07 µM | CC[C@@H]1CN(c2cc(=O)[nH]c3cn(CC#N)nc23)[C@@H](C)CN1C(C)c1ccc2nccnc2c1 (single isomer, unassigned) [Compound A177a]
29 | 0.73 µM | 0.015 µM | CC[C@H]1CN(C(C)c2ccc(OC(F)F)nc2)[C@H](CC)CN1c1cc(=O)n(C)c2cn(CC#N)nc12 (single isomer, unassigned) [Compound A180a]
30 | 7.74 µM | 0.11 µM | CC[C@@H]1CN(c2nc(=O)[nH]c3cn(CC#N)nc23)[C@@H](C)CN1C(C)c1ccc2nccnc2c1 (single isomer, unassigned) [Compound A183a]
31 | > 10 µM | 2.08 µM | CC[C@@H]1CN(c2nc(=O)[nH]c3cn(CC#N)nc23)[C@@H](C)CN1C(C)c1ccc2nccnc2c1 (single isomer, unassigned) [Compound A183b]
32 | > 10 µM | > 10 µM | CC[C@H]1CN(C(C)c2nc3cccnc3n2CC)[C@H](CC)CN1c1cc(=O)n(C)c2cn(CC#N)nc12 (single isomer, unassigned) [Compound A185a]
33 | 3.99 µM | 0.034 µM | CC[C@H]1CN(C(C)c2nc3cccnc3n2CC)[C@H](CC)CN1c1cc(=O)n(C)c2cn(CC#N)nc12 (single isomer, unassigned) [Compound A185b]
34 | 5.74 µM | 5.92 µM | CC[C@H]1CN(C(C)c2ncc(Cl)n2CC)[C@H](CC)CN1c1cc(=O)n(C)c2cn(CC#N)nc12 (single isomer, unassigned) [Compound A187a]
35 | 6.32 µM | 0.199 µM | CC[C@H]1CN(C(C)c2ncc(Cl)n2CC)[C@H](CC)CN1c1cc(=O)n(C)c2cn(CC#N)nc12 (single isomer, unassigned) [Compound A187b]
36 | 6.35 µM | 0.155 µM | CC[C@@H]1CN(c2c(F)c(=O)[nH]c3cn(CC#N)nc23)[C@@H](C)CN1C(C)c1ccc2nccnc2c1 (single isomer, unassigned) [Compound A194a]
37 | > 10 µM | 1.35 µM | CC[C@H]1CN(C(C)c2ccc(F)cc2C(F)(F)F)[C@H](CC)CN1c1cc(=O)n(C)c2cn(CC#N)nc12 (single isomer, unassigned) [Compound A196a]
38 | 93.2 µM | 0.038 µM | CC[C@H]1CN(C(C)c2ccc(F)cc2C(F)(F)F)[C@H](CC)CN1c1cc(=O)n(C)c2cn(CC#N)nc12 (single isomer, unassigned) [Compound A196b]
39 | > 10 µM | 2.05 µM | CC[C@H]1CN(C(C)c2ccccc2C(F)(F)F)[C@H](CC)CN1c1cc(=O)n(C)c2cn(CC#N)nc12 (single isomer, unassigned) [Compound A197a]
40 | > 10 µM | 0.169 µM | CC[C@H]1CN(C(C)c2ccccc2C(F)(F)F)[C@H](CC)CN1c1cc(=O)n(C)c2cn(CC#N)nc12 (single isomer, unassigned) [Compound A197b]
